From patent US20110306922A1, “LIGHT-EMITTING DEVICES FOR PHOTOTHERAPY” (priority 2010, published 2011)

Assays:
[1] = system: CHO-K1 (Chinese Hamster Ovarian Cancer, ATCC, CRL-2243) cell line
[2] = system: CHO-K1 (Chinese Hamster Ovarian Cancer, ATCC, CRL-2243) cell line; experiment: cells; conditions: Cricetulus griseus, CHO-K1, light or radiation study, read-out: cells destroyed (cell viability, light dosimetry)
[3] = system: age-related macular degeneration; experiment: Intravenous verteporphin plus red OLED illumination of the retina, age-related macular degeneration; type: in vivo, person; conditions: about 6 mg/m^2 i.v.; about 20 mW/cm^2 for about 42 minutes, about 50 J/cm
Method: (§1) Verteporphin is intravenously injected, over a period of about 10 minutes at a rate of about 3 mL/min, to a person suffering from age-related macular degeneration. The verteporphin (7.5 mL of 2 mg/mL reconstituted solution, available as Visudyne® from Novartis) is diluted with 5% dextrose to a volume of 30 mL using a sufficient quantity of the reconstituted verteporphin so that the total dose injected is about 6 mg/m^2 of body surface.
The treatment is repeated as needed.

[4] = system: pathological myopia; experiment: Intravenous verteporphin plus red OLED illumination of the retina, pathological myopia; type: in vivo, person; conditions: about 6 mg/m^2 i.v.; about 20 mW/cm^2 for about 42 minutes, about 50 J/cm2
Method: as §1, with “minute” for “minutes”, “pathological myopia.” for “age-related macular degeneration.”
After treatment, the patient's vision is anticipated to be stabilized. The treatment is repeated as needed.

[5] = system: presumed ocular histoplasmosis; set-up: species or system person; conditions: in vivo, iv

SMILES	generation of PpIX (fluorescence emission at 635 nm) ([1]; ALA 0.5 mM, 1 mM, 2 mM, incubated about 16 hrs at 37° C.)	optical microscope images of the cells: healthy leafy type cells transform to droplet type ([1]; after 25 J/cm^2 red light (630 nm) irradiation from OLED)	cytotoxicity at 1000 µM [2]	patient's vision [3]	patient's vision [4]	patient's vision [5]
NCC(=O)CCC(=O)O [ALA, 5-aminolevulinic acid]	confirmed	significant cell death	~90%			
C=Cc1c(C)c2cc3nc(cc4[nH]c(cc5nc(cc1[nH]2)C(C)=C5CCC(=O)O)c(CCC(=O)OC)c4C)[C@@]1(C)C3=CC=C(C(=O)OC)[C@H]1C(=O)OC [Verteporphin]				stabilized	stabilized	stabilized
